{"source": "patent US8029793B2", "about": "“Methods for inhibiting cell proliferation” (Chugai Seiyaku Kabushiki Kaisha, priority 2000, dated 2011)", "key": {"[1]": {"tested_on": "KTA-2 cell line", "assay": "PTHrP stimulation test (3H-TdR incorporation)", "type": "cell-based, human", "conditions": "PTHrP(34-53) 0, 1, 10, 100 ng/mL, trypsin treatment at 24 hours and at 48 hours after addition", "experimental": "(§1) Briefly, anaplastic thyroid cell lines TTA-1 (hatched bars), TTA-2 (solid bars), and KTA-2 (unfilled bars) were seeded at 1×10^4 cells per well in a 96-well plate. Cells were incubated for two days in complete medium and then shifted to serum-free medium for day 3. Cells were treated with PTHrP (34-53) at 0, 1, 10, and 100 ng/mL and treated with trypsin 24 (top panel) and 48 (bottom panel) hours later. Cells were labeled with ^3H-TdR for 6 hours (0.25 μCi/well) and incorporation of label was measured by liquid scintillation counting. Measurements were performed in triplicate and average results are presented.\n(§2) After treating TTA-1, TTA-2, and KTA-2 with trypsin, the number of viable cells not stained with trypan blue was counted with a hemocytometer. Subsequently, 1×10^4 cells were inoculated on a 96-well multi-plate (Falcon), and then cultured in a CO2 incubator at 37° C. for 2 days. On day 2 after culturing, the culture solution was replaced by a serum-free medium, and then culturing was performed for 1 day. PTHrP(34-53) (Calbiochem) at concentrations of 0 (PTHrP-free), 1, 10 and 100 ng/mL were added, followed by treatment with trypsin 24 and 48 hours later.\n(§3) The cells were labeled with ^3H-TdR for 6 hours (0.25 μCi/well), collected, and then incorporation of ^3H-TdR was measured using a liquid scintillation counter. […]"}, "[2]": {"tested_on": "TTA-1 cell line", "assay": "PTHrP stimulation test (3H-TdR incorporation)", "type": "cell-based, human", "conditions": "PTHrP(34-53) 0, 1, 10, 100 ng/mL, trypsin treatment at 24 hours and at 48 hours after addition", "experimental": "as §1, §2, §3"}}}
{"substance": "PTHrP(34-53): peptide fragment consisting the sequence of amino acids 34 to 53 of parathyroid hormone related peptide (Calbiochem) (AEIRATSEVSPNSKPSPNTK; listed as Homo sapiens)", "values": [{"measurement": "cell proliferation (incorporation of 3H-TdR)", "setting": "[1]", "result": "proliferate depending on the concentration of PTHrP"}, {"measurement": "cell proliferation (incorporation of 3H-TdR)", "setting": "[2]", "result": "proliferate depending on the concentration of PTHrP"}]}
